In patent US20250051323A1 (RICHTER GEDEON NYRT., priority 2021, published 2025):
Where a name gives a salt, the structure may show the parent alone. Read-outs that look alike come from different tables or passages of the source.

Columns and labels:
[1] = cited from earlier work
[2] = target: T1, human recombinant GABAA α5β3γ2 receptor (Homo sapiens (Human), UniProt P18507+P31644); test: Binding assay, [3H]Ro151788 displacement on HEK cell membranes; settings: [3H]Ro151788 0.5 nM, 60 minutes at 4° C., Cheng-Prusoff; read-out: hGABAA α5 Ki
Protocol: The GABAA α5β3γ2 protein used for the receptor binding assay was derived from membranes produced from HEK cells (Millipore CYL3073) expressing the human recombinant GABAA α5β3γ2 receptor. Cells were stored and cultured in-house according to the instructions provided by the vendor (Millipore). Cell pellet was homogenized in 10 times modified Krebs Henseleit buffer (membrane preparation buffer): 20 mM Tris, 120 mM NaCl, 100 mM KCl, 25 mM CaCl2 and 25 mM MgCl2 pH=7.4 at 4° C. using Ultra Turrax (Janke&Kunkel) maximal speed for 15 seconds. The homogenate was centrifuged at 40,000 g for 30 minutes at 4° C. Supernatant was discarded and the resulting pellet was washed in membrane preparation buffer. Pellet was resuspended in membrane preparation buffer and aliquots of 1.4 mL ampules were stored at −70° C. until use.
Receptor binding assays were performed in 96-well format in deep-well plates. For each 96-well plate one ampule of membrane homogenate was thawed and diluted in binding buffer (50 mM Tris pH=7.4, 100 mM KCl) and 200 μL was dispensed into each well. Radioligand [^3H]Ro151788 (Perkin Elmer: NET757250UC) was prepared in binding buffer and added to each well in 50 μL volume to give final concentration of 0.5 nM. Test compounds in suitable concentration(s) were added in additional 50 μL. The final assay volume was 300 μL. Incubation was carried out for 60 minutes at 4° C. For non-specific binding 10 μM unlabeled diazepam was used. […] The plate was dried at 40° C. for an hour and 40 μL Microscint (Perkin Elmer) scintillation cocktail was added to each well. The plate was read in Microbeta (Perkin Elmer).
The specific radioligand binding (SB) was defined as the difference between total binding (Tot) and the non-specific binding (NSB). Results are expressed as a percent inhibition of specific binding obtained in the presence of compound of interest.
For IC50 and Ki determination a minimum of six drug concentrations in triplicate were used. […] Ki values (i.e., inhibition constants) were calculated using the Cheng-Prusoff equation Ki=IC5O/[1+(L/KD)], where [L] is the radioligand concentration and KD the affinity of the labelled ligand for receptor. KD was determined from the Saturation analyses.

[3] = target: T1, human recombinant GABAA α5β3γ2 receptor; test: Functional assay, QPatch automated whole-cell patch clamp, modulation of GABA-evoked current; type: cell-based; settings: read-out: hGABAA α5 efficacy (percentage modulation of GABA-evoked peak current)
Protocol: Human HEK293 cell lines expressing GABAAα5β3γ2 receptors were used in functional assays using the QPatch automated patch clamp system.
HEK293 cell lines stably expressing human recombinant GABAA α5β3γ2 receptor subunits (Millipore, CYL3053) were cultured in DMEM supplemented with 10% FBS (Gibco), passed two times per week and plated on Petri dishes previously coated with poly-d-lysine.
Automated whole-cell patch clamp recordings were made from cells 2-4 days after plating.
Inward currents were evoked at a holding potential of −80 mV by 3-s-long applications of the control agonist GABA at 1 μM at 2-4-min intervals first in concentration-matched DMSO (0.1 or 0.3%) control solution for five times, then in the presence of the test compound for four times, finally in control solution again for three times (wash-out). At the end of the experiment 100 μM GABA was applied to saturate the GABA-response and to assess the efficacy of the control GABA application. Current signals were low-pass filtered at 100 Hz and recorded at a sampling rate of 1 kHz.
The percentage modulation was calculated from the comparison of GABA-evoked peak current amplitudes in the presence and absence of the test compound.

[4] = mouse stress models and aged mice; cited from earlier work
[5] = rats, developmental models of schizophrenia; cited from earlier work
[6] = low dose; cited from earlier work
[7] = test compound 1 μM, GABA 1 μM, holding potential −80 mV

T1 sequence (P31644 32-462): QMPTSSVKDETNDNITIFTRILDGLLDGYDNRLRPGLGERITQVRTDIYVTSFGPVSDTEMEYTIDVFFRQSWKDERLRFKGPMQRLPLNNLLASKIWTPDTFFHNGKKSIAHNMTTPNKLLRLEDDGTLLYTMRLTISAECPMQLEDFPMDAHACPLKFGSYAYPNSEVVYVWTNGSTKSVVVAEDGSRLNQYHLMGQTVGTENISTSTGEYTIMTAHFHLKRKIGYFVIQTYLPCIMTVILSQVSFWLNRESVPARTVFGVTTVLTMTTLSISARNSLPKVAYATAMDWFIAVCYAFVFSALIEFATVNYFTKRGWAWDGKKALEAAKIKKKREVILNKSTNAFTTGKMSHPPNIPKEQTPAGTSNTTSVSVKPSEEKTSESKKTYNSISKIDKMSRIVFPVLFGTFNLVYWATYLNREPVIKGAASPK
T1 sequence (P28472 26-473 partner): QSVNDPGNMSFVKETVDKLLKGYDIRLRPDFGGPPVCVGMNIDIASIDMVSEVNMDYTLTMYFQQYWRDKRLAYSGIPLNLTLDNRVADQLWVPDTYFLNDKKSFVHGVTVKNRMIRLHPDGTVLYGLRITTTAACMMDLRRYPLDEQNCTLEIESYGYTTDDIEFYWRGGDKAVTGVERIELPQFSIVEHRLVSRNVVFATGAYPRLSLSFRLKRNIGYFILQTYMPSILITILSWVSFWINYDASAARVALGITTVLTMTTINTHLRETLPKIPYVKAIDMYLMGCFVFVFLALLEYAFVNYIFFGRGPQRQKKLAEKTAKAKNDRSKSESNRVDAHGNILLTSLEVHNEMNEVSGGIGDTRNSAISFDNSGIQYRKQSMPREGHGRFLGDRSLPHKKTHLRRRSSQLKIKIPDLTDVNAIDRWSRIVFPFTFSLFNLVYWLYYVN
T1 sequence (P18507 40-475): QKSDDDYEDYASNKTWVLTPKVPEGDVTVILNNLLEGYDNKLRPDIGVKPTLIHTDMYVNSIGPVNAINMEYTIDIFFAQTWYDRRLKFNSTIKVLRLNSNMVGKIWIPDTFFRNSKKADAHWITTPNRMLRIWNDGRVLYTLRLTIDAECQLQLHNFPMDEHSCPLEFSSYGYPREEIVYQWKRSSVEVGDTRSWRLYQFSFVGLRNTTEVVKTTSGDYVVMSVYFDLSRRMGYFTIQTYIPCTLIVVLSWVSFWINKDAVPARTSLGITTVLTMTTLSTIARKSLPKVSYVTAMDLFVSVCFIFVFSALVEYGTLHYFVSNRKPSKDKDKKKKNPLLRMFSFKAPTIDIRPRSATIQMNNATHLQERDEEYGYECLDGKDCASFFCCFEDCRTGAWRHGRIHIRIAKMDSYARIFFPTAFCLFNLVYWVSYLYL

| SMILES | Ki [2] | activation at 1 µM [3, 7] | further results |
| --- | --- | --- | --- |
| Cc1ccc(-n2nnc(C)c2COc2cc3c(nn2)CNCC3)cn1 [Compound 44] | – | – | cognitive performance ([1]; aged rats): improved cognitive performance |
| Cc1ccc(-c2noc(C)c2COc2cc3c(cn2)CN(C2CCOCC2)CC3)cn1 [Example 11, 6-{[5-methyl-3-(6-methylpyridin-3-yl)-1,2-oxazol-4-yl]methoxy}-2-(oxan-4-yl)-1,2,3,4-tetrahydro-2,7-naphthyridine] | 7.4 nM | 114% | – |
| Cc1ccc(-c2noc(C)c2COc2cc3c(cn2)CN(c2ccccn2)CC3)cn1 [Example 13, 6-{[5-methyl-3-(6-methylpyridin-3-yl)-1,2-oxazol-4-yl]methoxy}-2-(pyridin-2-yl)-1,2,3,4-tetrahydro-2,7-naphthyridine] | 6.6 nM | 129% | – |
| Cc1ccc(-c2noc(C)c2COc2cc3c(nn2)CNCC3)cn1 [Example 14, 2-methyl-5-[5-methyl-4-({5H,6H,7H,8H-pyrido[3,4-c]pyridazin-3-yloxy}methyl)-1,2-oxazol-3-yl]pyridine] | 3.2 nM | 126% | – |
| Cc1onc(-c2ccc(C(F)(F)F)nc2)c1COc1cc2c(nn1)CNCC2 [Example 15, 5-[5-methyl-4-({5H,6H,7H,8H-pyrido[3,4-c]pyridazin-3-yloxy}methyl)-1,2-oxazol-3-yl]-2-(trifluoromethyl)pyridine] | 17.1 nM | 115% | – |
| Cc1ccc(-c2noc(C)c2COc2cc3c(nn2)CN(C)CC3)cn1 [Example 16, 2-methyl-5-{5-methyl-4-[({7-methyl-5H,6H,7H,8H-pyrido[3,4-c]pyridazin-3-yl}oxy)methyl]-1,2-oxazol-3-yl}pyridine] | 5.6 nM | 146% | – |
| Cc1onc(-c2ccc(C(F)(F)F)nc2)c1COc1cc2c(nn1)CN(CC1CCS(=O)(=O)C1)CC2 (stereo not drawn) [Example 19, 3-{[3-({5-methyl-3-[6-(trifluoromethyl)pyridin-3-yl}-1,2-oxazol-4-yl]methoxy)-5H,6H,7H,8H-pyrido[3,4-c]pyridazin-7-yl]methyl}-1lambda6-thiolane-1,1-dione tartarate salt] | 35.5 nM | – | activation at 1 µM [3]: 129% |
| Cc1ccc(-n2nnc(C)c2COc2cc3c(cn2)CNCC3)cn1 [Example 20, 6-{[4-methyl-1-(6-methylpyridin-3-yl)-1H-1,2,3-triazol-5-yl]methoxy}-1,2,3,4-tetrahydro-2,7-naphthyridine] | 26.5 nM | 111% | – |
| Cc1ccc(-n2nnc(C)c2COc2cc3c(cn2)CN(C)CC3)cn1 [Example 21, 2-methyl-6-{[4-methyl-1-(6-methylpyridin-3-yl)-1H-1,2,3-triazol-5-yl]methoxy}-1,2,3,4-tetrahydro-2,7-naphthyridine] | 23 nM | 134% | – |
| Cc1ccc(-n2nnc(C)c2COc2cc3c(cn2)CN(C(C)C)CC3)cn1 [Example 22, 6-{[4-methyl-1-(6-methylpyridin-3-yl)-1H-1,2,3-triazol-5-yl]methoxyl}-2-(propan-2-yl)-1,2,3,4-tetrahydro-2,7-naphthyridine] | 22.7 nM | 68% | – |
| Cc1nnn(-c2ccc(C(F)F)nc2)c1COc1cc2c(cn1)CN(C)CC2 [Example 24, 6-({1-[6-(difluoromethyl)pyridin-3-yl]-4-methyl-1H-1,2,3-triazol-5-yl}methoxy)-2-methyl-1,2,3,4-tetrahydro-2,7-naphthyridine] | 8.3 nM | 88% | – |
| Cc1nnn(-c2ccc(C(F)(F)F)nc2)c1COc1cc2c(cn1)CNCC2 [Example 25, 6-({4-methyl-1-[6-(trifluoromethyl)pyridin-3-yl]-1H-1,2,3-triazol-5-yl}methoxy)-1,2,3,4-tetrahydro-2,7-naphthyridine] | 128 nM | 73% | – |
| Cc1nnn(-c2ccc(C(F)F)nc2)c1COc1cc2c(cn1)CN(C1CCOC1)CC2 (stereo not drawn) [Example 30, 6-({1-[6-(difluoromethyl)pyridin-3-yl]-4-methyl-1H-1,2,3-triazol-5-yl}methoxy)-2-(oxolan-3-yl)-1,2,3,4-tetrahydro-2,7-naphthyridine] | 3.3 nM | 59% | – |
| Cc1ccc(-n2nnc(C)c2COc2cc3c(cn2)CN(C2COC2)CC3)cn1 [Example 31, 6-{[4-methyl-1-(6-methylpyridin-3-yl)-1H-1,2,3-triazol-5-yl]methoxy}-2-(oxetan-3-yl)-1,2,3,4-tetrahydro-2,7-naphthyridine] | 36 nM | 115% | – |
| Cc1nnn(-c2ccc(C(F)(F)F)nc2)c1COc1cc2c(cn1)CN(C1CCOC1)CC2 (stereo not drawn) [Example 32, 6-({4-methyl-1-[6-(trifluoromethyl)pyridin-3-yl]-1H-1,2,3-triazol-5-yl}methoxy)-2-(oxolan-3-yl)-1,2,3,4-tetrahydro-2,7-naphthyridine] | 44.5 nM | 155% | – |
| Cc1ccc(-n2nnc(C)c2COc2cc3c(cn2)CN(C2CCOCC2)CC3)cn1 [Example 33, 6-{[4-methyl-1-(6-methylpyridin-3-yl)-1H-1,2,3-triazol-5-yl]methoxy}-2-(oxan-4-yl)-1,2,3,4-tetrahydro-2,7-naphthyridine] | 29.5 nM | 71% | – |
| COc1ccc(-n2nnc(C)c2COc2cc3c(cn2)CNCC3)cn1 [Example 34, 6-{[1-(6-methoxypyridin-3-yl)-4-methyl-1H-1,2,3-triazol-5-yl]methoxy}-1,2,3,4-tetrahydro-2,7-naphthyridine] | 51.6 nM | 62% | – |
| Cc1ccc(-n2nnc(C)c2COc2cc3c(nn2)CNCC3)cn1 [Example 44, 2-methyl-5-[4-methyl-5-({5H,6H,7H,8H-pyrido[3,4-c]pyridazin-3-yloxy}methyl)-1H-1,2,3-triazol-1-yl]pyridine] | 40.4 nM | 96% | – |
| Cc1ccc(-n2nnc(C)c2COc2cc3c(nn2)CN(CC2CCC2)CC3)cn1 [Example 45, 5-[5-({[7-(cyclobutylmethyl)-5H,6H,7H,8H-pyrido[3,4-c]pyridazin-3-yl]oxy}methyl)-4-methyl-1H-1,2,3-triazol-1-yl]-2-methylpyridine tartarate salt] | 99.5 nM | – | activation at 1 µM [3]: 97% |
| Cc1ccc(-n2nnc(C)c2COc2cc3c(nn2)CN(C2CCC2)CC3)cn1 [Example 46, 5-{5-[({7-cyclobutyl-5H,6H,7H,8H-pyrido[3,4-c]pyridazin-3-yl}oxy)methyl]-4-methyl-1H-1,2,3-triazol-1-yl}-2-methylpyridine tartarate salt] | 61.5 nM | – | activation at 1 µM [3]: 76% |
| C#Cc1ccc2c(c1)C(c1ccccc1F)=N[C@H](C)c1c(C(=O)NC)ncn1-2 [MP-III-022] | – | – | behavioural effects [4]: procognitive, anxiolytic and antidepressant effects; cognitive performance ([1]; young rats): improved cognitive performance; pathological changes of locomotor activity [5]: attenuated pathological changes of locomotor activity |
| C#Cc1ccc2c(c1)C(c1ccccc1F)=N[C@H](C)c1c(C(=O)OCC)ncn1-2 [SH-053-2′F—R—CH3] | – | – | behavioural effects [4]: procognitive, anxiolytic and antidepressant effects; pathological changes of locomotor activity [5]: attenuated pathological changes of locomotor activity |
| O=C1CN=C(c2ccccc2Cl)c2cc([N+](=O)[O-])ccc2N1 [clonazepam] | – | – | symptoms in preclinical models of ASD [6]: ameliorate symptoms |
